Test results from article PMC10380083, “Synthesis of Prostate-Specific Membrane Antigen-Targeted Bimodal Conjugates of Cytotoxic Agents and Antiandrogens and Their Comparative Assessment with Monoconjugates” (International Journal of Molecular Sciences, 2023).
Where two headings read alike, the source gives them in different places. *1 amine or outer side, *2 acyl side, *3 side chain or, on linkers, in order; H or OH if unused. Where a SMILES comes first, the peptide text is derived from it. [ ]: non-standard residue; d: D form. The star is where a group is joined. GluureaLys(ε-3-ClBenzyl) = O=C(O)CC[C@H](NC(=O)N[C@@H](CCCCN(Cc1cccc(Cl)c1)*)C(=O)O)C(=O)O; X3 = CC1(C)C(=O)N(c2ccc(C#N)c(C(F)(F)F)c2)C(=S)N1c1ccc(C(=O)*)c(F)c1; Dolaproine = CO[C@@H]([C@@H]1CCCN1)[C@@H](C)C(=O)O; Dil = CC[C@H](C)[C@H](NC)[C@@H](CC(=O)O)OC; X2 = O=C(CCCc1cn(CCCN[*:1])nn1)[*:2]; PABC = O=C(OCc1ccc(N[*:1])cc1)[*:2]; X1 = C[C@@H](N*)[C@@H](O)c1ccccc1; Cit = NC(=O)NCCC[C@H](N)C(=O)O; Suc = O=C(CCC(=O)[*:2])[*:1]; NMeV = CN[C@H](C(=O)O)C(C)C; Ahx = NCCCCCC(=O)O

Columns and labels:
[1] = Body weight, general condition and mortality in the antitumor efficacy study; conditions: i.v. 132.3 nM/kg x3
Experimental: Animal body weight data are presented in Table S2 in the electronic supplementary materials.
To study the antitumor efficacy, conjugates were administered intravenously at a dose of 132.3 nM/kg to tumor-bearing mice three times at five-day intervals; administration was started 7−8 days after cell inoculation, and the tumor size was 70−90 mm^3. As a control substance, 0.9% sodium chloride solution was used. Experimental groups included five animals each. […] The mixture was dissolved in DMSO (5% of final solution) and diluted with hemodesum (30% low-molecular-weight polyvinylpyrrolidone (Mw = 8000 ± 200) saline infusion solution). The presence of tumors and their sizes, as well as the body weights of the mice, were recorded every five days during the observation of the animals. The antitumor effect was assessed by comparing the tumor volumes in the experimental and control groups as well as the amount of tumor growth inhibition (TGI, %). […]
(§1) 3.2.1. In vivo evaluation of antitumor efficacy […]
(§2) intravenously at a dose of 132.3 nM/kg to tumor-bearing mice three times at 5-day intervals, the administration was started 7-8 days after cell inoculation to animals, tumor size was 70-90 mm3.
(§3) A 0.9% sodium chloride solution was used as a control substance. The experimental groups […]
(§4) The presence of tumor masses and their size, as well as the body weight of the mice, were recorded every 5 days during observation. In accordance with humane principles, animals were euthanized by placing the mice in a CO2 inhalation chamber (ZOONLAB GmbH, Germany).
Conjugate Method of injection Dose Number of animals 22Rv1 PC-3 […]
3.4. In vivo Efficacy Evaluation
Days after tumor implantation / mass± error, g
Conjugate 7 day 12 day 17 day […]
injection) injection) injection)
Human prostate carcinoma 22Rv1
Human prostate adenocarcinoma PC-3
Table S3. Tumor growth dynamics of 22Rv1 and PC-3 in mice with intravenous triple injection of […]
ate Days after tumor implantation / V±m, mm3

[2] = tested on: 22Rv1 human prostate carcinoma xenograft; conditions: 22Rv1 xenograft; for tumor volume V±m: i.v. triple injection, single dose 132.3 nM/kg; for Tumor growth inhibition: i.v. 132.3 nM/kg three times
Experimental: (§5) We carried out in vivo studies of the efficacy of the obtained bimodal conjugates. […] Also, conjugate I (Figure 5) was used as a reference compound. An isotonic (0.9%) sodium chloride solution was used as a negative control. Studies were carried out in xenograft models of 22Rv1 human prostate carcinoma and PC-3 prostate adenocarcinoma in immunodeficient Balb/c nude mice (male).
(§6) Two cell lines were used: human prostate carcinoma 22Rv1 and prostate adenocarcinoma PC-3 (ATCC collection). Cells were cultured in 75 cm^2 vials (Costar, Washington, DC, USA) in RPMI-1640 medium (PanEco, Russia) with the addition of 2 mM L-glutamine (PanEco, Russia) and 10% fetal calf serum (HyClone, Logan, UT, USA) under standard conditions of cultivation (in a humidified atmosphere at 37 °C and 5% CO2). Cells of 6–10 passages were used to inoculate the animals. Cell suspension was prepared with a concentration of 5 × 10^6 cells in 0.05 mL of the 22Rv1 medium and in 0.1 mL of the PC-3 medium. 22Rv1 cells were inoculated into animals in Matrigel (BD Matrigel Basement Membrane Matrix, BD Biosciences, San Jose, CA, USA). Manipulations with Matrigel were performed on a refrigerated plate using precooled materials, tubes and instrumentation. For animal administration, 50 μL of the cell suspension (5 × 10^6 cells) was transferred to a chilled tube containing 50 μL of Matrigel; after mixing, the cellular material (final volume of 100 μL) was injected subcutaneously into the groin area of the animal. To obtain subcutaneous xenograft PC-3, a 5 × 10^6 suspension of tumor cells was inoculated subcutaneously into the inguinal cavity of male mice in a volume of 0.1 mL.
(§7) To study the antitumor efficacy, conjugates were administered intravenously at a dose of 132.3 nM/kg to tumor-bearing mice three times at five-day intervals; administration was started 7−8 days after cell inoculation, and the tumor size was 70−90 mm^3. As a control substance, 0.9% sodium chloride solution was used. Experimental groups included five animals each. […] The mixture was dissolved in DMSO (5% of final solution) and diluted with hemodesum (30% low-molecular-weight polyvinylpyrrolidone (Mw = 8000 ± 200) saline infusion solution). The presence of tumors and their sizes, as well as the body weights of the mice, were recorded every five days during the observation of the animals. The antitumor effect was assessed by comparing the tumor volumes in the experimental and control groups as well as the amount of tumor growth inhibition (TGI, %).
(§8) Tumor volume was calculated using Formula (1):V = d1 × d2 × d3 × 0.52(1) where d1, d2 and d3 are the three mutually perpendicular dimensions of the tumor. […]
as §1, §2, §3, §4

[3] = tested on: PC-3 prostate adenocarcinoma xenograft; conditions: PC-3 xenograft; for tumor volume V±m: i.v. triple injection, single dose 132.3 nM/kg; for Tumor growth inhibition: i.v. 132.3 nM/kg three times; for TGI, did not exceed: i.v. 132.3 nM/kg three times at five-day intervals, male Balb/c nude mice
Experimental: as §5, §6, §7, §8, §1, §2, §3, §4

[4] = 22Rv1 xenograft mice, 7 day after tumor implantation (1st injection)
[5] = 22Rv1 xenograft mice, 12 day after tumor implantation (2nd injection)
[6] = 22Rv1 xenograft mice, 17 day after tumor implantation (3rd injection)
[7] = 22Rv1 xenograft mice, 22 day after tumor implantation
[8] = 22Rv1 xenograft mice, 27 day after tumor implantation
[9] = 22Rv1 xenograft mice, 33 day after tumor implantation
[10] = 22Rv1 xenograft mice, 37 day after tumor implantation
[11] = PC-3 xenograft mice, 7 day after tumor implantation (1st injection)
[12] = PC-3 xenograft mice, 12 day after tumor implantation (2nd injection)
[13] = PC-3 xenograft mice, 17 day after tumor implantation (3rd injection)
[14] = PC-3 xenograft mice, 22 day after tumor implantation
[15] = PC-3 xenograft mice, 27 day after tumor implantation
[16] = PC-3 xenograft mice, 33 day after tumor implantation
[17] = PC-3 xenograft mice, 37 day after tumor implantation
[18] = 7 day after tumor implantation (1st injection)
[19] = 12 day after tumor implantation (2nd injection)
[20] = 17 day after tumor implantation (3rd injection)
[21] = 22 day after tumor implantation
[22] = 27 day after tumor implantation
[23] = 33 day after tumor implantation
[24] = 37 day after tumor implantation
[25] = days after the start of treatment: 1
[26] = days after the start of treatment: 5
[27] = days after the start of treatment: 10
[28] = days after the start of treatment: 16
[29] = days after the start of treatment: 20

SMILES: CC[C@H](C)[C@@H]([C@@H](CC(=O)N1CCC[C@H]1[C@H](OC)[C@@H](C)C(=O)N[C@H](C)[C@@H](O)c1ccccc1)OC)N(C)C(=O)[C@@H](NC(=O)[C@@H](NC)C(C)C)C(C)C [MMAE, Monomethyl Auristatin E, reference compound] (H-[NMeV]V[Dil][Dolaproine]-X1)
- body weight, mass ± error [1, 4]: 24.0 ± 1.3 g
- body weight, mass ± error [1, 5]: 23.7 ± 1.3 g
- body weight, mass ± error [1, 6]: 23.4 ± 1.3 g
- body weight, mass ± error [1, 7]: 23.5 ± 1.3 g
- body weight, mass ± error [1, 8]: 23.8 ± 1.3 g
- body weight, mass ± error [1, 9]: 24.0 ± 1.3 g
- body weight, mass ± error [1, 10]: 24.2 ± 1.4 g
- body weight, mass ± error [1, 11]: 22.4 ± 1.2 g
- body weight, mass ± error [1, 12]: 22.7 ± 1.5 g
- body weight, mass ± error [1, 13]: 22.4 ± 1.4 g
- body weight, mass ± error [1, 14]: 23.0 ± 1.4 g
- body weight, mass ± error [1, 15]: 23.1 ± 1.3 g
- body weight, mass ± error [1, 16]: 23.2 ± 1.2 g
- body weight, mass ± error [1, 17]: 23.3 ± 1.2 g
- tumor volume V±m [2, 18]: 73.7±14.3 mm3
- tumor volume V±m [2, 19]: 93.6±5.7 mm3
- tumor volume V±m [2, 20]: 125.3 mm3
- tumor volume V±m [2, 21]: 211.7 mm3
- tumor volume V±m [2, 22]: 388.2 mm3
- tumor volume V±m [2, 23]: 749.3 mm3
- tumor volume V±m [2, 24]: 1402.3 mm3
- Tumor growth inhibition [2, 25]: 41.5%
- Tumor growth inhibition [2, 26]: 60.1%
- Tumor growth inhibition [2, 27]: 64.7%
- Tumor growth inhibition [2, 28]: 63.0%
- Tumor growth inhibition [2, 29]: 51.0%
- tumor volume V±m [3, 18]: 85.9±8.7 mm3
- tumor volume V±m [3, 19]: 117.9 mm3
- tumor volume V±m [3, 20]: 211.3 mm3
- tumor volume V±m [3, 21]: 330.9 mm3
- tumor volume V±m [3, 22]: 592.6 mm3
- tumor volume V±m [3, 23]: 1014.3 mm3
- tumor volume V±m [3, 24]: 1679.9 mm3
- Tumor growth inhibition [3, 25]: 29.8%
- Tumor growth inhibition [3, 26]: 32.1%
- Tumor growth inhibition [3, 27]: 29.5%
- Tumor growth inhibition [3, 28]: 25.4%
- Tumor growth inhibition [3, 29]: 38.4%
- TGI, did not exceed [3]: ≤ 38.4%

SMILES: CC[C@H](C)[C@@H]([C@@H](CC(=O)N1CCC[C@H]1[C@H](OC)[C@@H](C)C(=O)N[C@H](C)[C@@H](O)c1ccccc1)OC)N(C)C(=O)[C@@H](NC(=O)[C@H](C(C)C)N(C)C(=O)OCc1ccc(NC(=O)[C@H](CCCNC(N)=O)NC(=O)[C@@H](NC(=O)CCCc2cn(CCCNC(=O)[C@H](CCCCNC(=O)c3ccc(N4C(=S)N(c5ccc(C#N)c(C(F)(F)F)c5)C(=O)C4(C)C)cc3F)NC(=O)[C@H](Cc3ccc(O)cc3)NC(=O)[C@H](Cc3ccccc3)NC(=O)CCC(=O)NCCCCCC(=O)N(CCCC[C@H](NC(=O)N[C@@H](CCC(=O)O)C(=O)O)C(=O)O)Cc3cccc(Cl)c3)nn2)C(C)C)cc1)C(C)C [compound 15] ({GluureaLys(ε-3-ClBenzyl)-Ahx-Suc}-FYK(X3)[X2]V[Cit][PABC][NMeV]V[Dil][Dolaproine]-X1)
- body weight, mass ± error [1, 4]: 25.2 ± 1.2 g
- body weight, mass ± error [1, 5]: 25.0 ± 1.2 g
- body weight, mass ± error [1, 6]: 25.0 ± 1.2 g
- body weight, mass ± error [1, 7]: 25.2 ± 1.3 g
- body weight, mass ± error [1, 8]: 25.1 ± 1.3 g
- body weight, mass ± error [1, 9]: 25.2 ± 1.3 g
- body weight, mass ± error [1, 10]: 25.5 ± 1.5 g
- body weight, mass ± error [1, 11]: 23.9 ± 2.1 g
- body weight, mass ± error [1, 12]: 23.8 ± 2.1 g
- body weight, mass ± error [1, 13]: 24.0 ± 2.2 g
- body weight, mass ± error [1, 14]: 24.4 ± 2.3 g
- body weight, mass ± error [1, 15]: 24.8 ± 2.1 g
- body weight, mass ± error [1, 16]: 24.9 ± 1.8 g
- body weight, mass ± error [1, 17]: 25.1 ± 1.9 g
- tumor volume V±m [2, 18]: 73.3±8.8 mm3
- tumor volume V±m [2, 19]: 64.7±15.3 mm3
- tumor volume V±m [2, 20]: 76.1±46.5 mm3
- tumor volume V±m [2, 21]: 171.6 mm3
- tumor volume V±m [2, 23]: 650.1 mm3
- tumor volume V±m [2, 24]: 988.7 mm3
- Tumor growth inhibition [2, 25]: 64.5%
- Tumor growth inhibition [2, 26]: 67.6%
- Tumor growth inhibition [2, 27]: 71.3%
- Tumor growth inhibition [2, 28]: 67.9%
- Tumor growth inhibition [2, 29]: 65.4%
- tumor volume V±m [3, 18]: 83.1±6.8 mm3
- tumor volume V±m [3, 19]: 117.6 mm3
- tumor volume V±m [3, 22]: 534.3 mm3
- tumor volume V±m [3, 23]: 819.8 mm3
- tumor volume V±m [3, 24]: 1318.4 mm3
- Tumor growth inhibition [3, 25]: 20.5%
- Tumor growth inhibition [3, 26]: 18.5%
- Tumor growth inhibition [3, 27]: 36.5%
- Tumor growth inhibition [3, 28]: 39.7%
- Tumor growth inhibition [3, 29]: 51.7%
- TGI, did not exceed [3]: ≤ 51.7%
